Data reported in patent US9994587B2, “HIV protease inhibitors” (priority 2014, dated 2018).
pIC50: −log10 of the molar value.

Target: T1, wildtype HIV-1 protease (Human immunodeficiency virus type 1 group M subtype B, UniProt P04585)
T1 construct: preincubated with the HIV-1 protease (wild type) enzyme in assay buffer; made in house; host or cells: Escherichia coli
Experiment: Assay for inhibition of microbial expressed HIV protease (Pepcleav)
Type: biochemical
Conditions: wild type HIV-1 protease 20 pM, peptide substrate 400 micromolar, pH 5.5; mean of at least two independent experiments
Method: Assay for Inhibition of Microbial Expressed HIV Protease (“Pepcleav”)
Studies of the inhibition of the wildtype HIV-1 protease (which was expressed in Escherichia coli) were carried out with a peptide substrate [Val-Ser-Gln-Asn-(βnaphtyl)Ala-Pro-Ile-Val (SEQ ID NO 1)]. The inhibitor was first preincubated with the HIV-1 protease (wild type) enzyme in assay buffer (50 mM sodium acetate, pH 5.5, 100 mM NaCl, and 0.1% BSA) for 30 minutes at room temperature. Substrate was added to 400 micromolar in a total volume of 20 microliters containing 20 picomolar HIV-1 protease (final) and the reaction is incubated for 1 hour at 30° C. The reaction was quenched with the addition of formic acid and indinavir to 0.012% and 150 nM final concentrations, respectively. Product formation was determined after separation of product and substrate on a Zorbax Eclipse XDB-C18 column connected to an API 4000 mass spectrometer (Applied Biosystems) with multiple reaction monitoring (transitions were 644.5/428.9 and 615.4/422.2 (M1/M3) for product and indinavir respectively). The extent of inhibition of the reaction was determined from the peak area of the products.

SMILES | pIC50
COC(=O)N[C@H](C(=O)Nc1ccccc1OC[C@@H]1CNC[C@@H](CSc2ccc(Cl)cc2)O1)C(c1ccccc1)c1ccccc1 [Example 58, methyl N-[(1S)-1-benzhydryl-2-[[2-[[(2S,6S)-6-[(4-chlorophenyl)sulfanylmethyl]morpholin-2-yl]methoxy]phenyl]amino]-2-oxo-ethyl]carbamate] | 8.09
N[C@H](C(=O)Nc1cncc(F)c1CC[C@@H]1CNCC2(CCCCC2)O1)C(c1ccccc1)c1ccccc1 [Example 133, N-(5-fluoro-4-{2-[(2R)-1-oxa-4-azaspiro[5.5]undec-2-yl]ethyl}pyridin-3-yl)-β-phenyl-L-phenylalaninamide] | 6.54
COC(=O)N[C@H](C(=O)Nc1ccccc1CC[C@@H]1CNC[C@@H](COc2ccc(C(F)(F)F)cc2)O1)C(c1ccccc1)c1ccccc1 [Example 44, N-α-(methoxycarbonyl)-β-phenyl-N-(2-{2-[(2R,6S)-6-{[4-(trifluoromethyl)phenoxy]methyl}morpholin-2-yl]ethyl}phenyl)-L-phenylalaninamide] | 7.85
COC(=O)N[C@H](C(=O)Nc1c(CC[C@@H]2CNC[C@@H](COc3ccc(C#N)cc3)O2)cc[nH]c1=O)C(c1ccccc1)c1ccccc1 [Example 86, N-[4-(2-{(2R,6S)-6-[(4-cyanophenoxy)methyl]morpholin-2-yl}ethyl)-2-oxo-1,2-dihydropyridin-3-yl]-Nα-(methoxycarbonyl)-β-phenyl-L-phenylalaninamide] | 8.39
COC(=O)N[C@H](C(=O)Nc1ccccc1CC[C@@H]1CNC[C@@H](CSc2ccc(S(C)(=O)=O)cc2)O1)C(c1ccccc1)c1ccccc1 [Example 21, methyl N-[(1S)-1-benzhydryl-2-[[2-[2-[(2R,6S)-6-[(4-methylsulfonylphenyl)sulfanyl-methyl]morpholin-2-yl]ethyl]phenyl]amino]-2-oxo-ethyl]carbamate] | 9.07
C#C[C@@H]1CNC[C@@H](CCc2ccccc2NC(=O)[C@@H](NC(=O)OC)C(c2ccccc2)c2ccccc2)O1 [Example 111, N-(2-{2-[(2R,6R)-6-ethynylmorpholin-2-yl]ethyl}phenyl)-Nα-(methoxycarbonyl)-β-phenyl-L-phenylalaninamide] | 6.24
COC(=O)N[C@H](C(=O)Nc1ccccc1CC[C@@H]1CNC[C@@H](COc2ccc(-n3ccnc3)cc2)O1)C(c1ccccc1)c1ccccc1 [Example 108, N-(2-{2-[(2R,6S)-6-{[4-(1H-imidazol-1-yl)phenoxy]methyl}morpholin-2-yl]ethyl}phenyl)-Nα-(methoxycarbonyl)-β-phenyl-L-phenylalaninamide] | 7.43
COC(=O)N[C@H](C(=O)Nc1ccccc1CC[C@@H]1CNC[C@@H](COc2cccc(F)c2)O1)C(c1ccccc1)c1ccccc1 [Example 47, N-[2-(2-{(2R,6S)-6-[(3-fluorophenoxy)methyl]morpholin-2-yl}ethyl)phenyl]-Nα-(methoxycarbonyl)-β-phenyl-L-phenylalaninamide] | 7.92
COC(=O)N[C@H](C(=O)NCCCC1CNC[C@@H](CSc2ccc(Cl)cc2C)O1)C(c1ccccc1)c1ccccc1 (stereo partly drawn) [Example 3, methyl N-[(1S)-1-benzhydryl-2-[3-[(6S)-6-[(4-chloro-2-methyl-phenyl)sulfanylmethyl]morpholin-2-yl]propylamino]-2-oxo-ethyl]carbamate] | 6.38
COC(=O)N[C@H](C(=O)Nc1ccccc1CCC1CNC[C@@H](COc2ccc(Cl)cc2)O1)C(c1ccccc1)c1ccccc1 (stereo partly drawn) [Example 5, methyl N-[(1S)-1-benzhydryl-2-[[2-[2-[(6S)-6-[(4-chlorophenoxy)methyl]morpholin-2-yl]ethyl]phenyl]amino]-2-oxo-ethyl]carbamate] | 7.24
N[C@H](C(=O)Nc1cncc(F)c1CC[C@@H]1CNC[C@@H](COC(=O)NCCc2ccccc2)O1)C(c1ccc(F)cc1)c1ccc(F)cc1 [Example 130, 4-fluoro-β-(4-fluorophenyl)-N-(5-fluoro-4-{2-[(2R,6S)-6-({[(2-phenylethyl)carbamoyl]oxy}methyl)morpholin-2-yl]ethyl}pyridin-3-yl)-L-phenylalaninamide] | 8.06
COC(=O)N[C@H](C(=O)Nc1ccccc1CC[C@@H]1CNC[C@@H](COc2ccc(Cc3ccccc3)cc2)O1)C(c1ccccc1)c1ccccc1 [Example 12, methyl N-[(1S)-1-benzhydryl-2-[[2-[2-[(2R,6S)-6-[(4-benzylphenoxy)methyl]morpholin-2-yl]ethyl]phenyl]amino]-2-oxo-ethyl]carbamate] | 7.62
COC(=O)N[C@H](C(=O)Nc1ccccc1CC[C@@H]1CNC[C@@H](COc2ccc(C#N)cc2C)O1)C(c1ccccc1)c1ccccc1 [Example 29, methyl N-[(1S)-1-benzhydryl-2-[[2-[2-[(2R,6S)-6-[(4-cyano-2-methyl-phenoxy)methyl]morpholin-2-yl]ethyl]phenyl]amino]-2-oxo-ethyl]carbamate] | 7.77
COC(=O)N[C@H](C(=O)Nc1ccccc1C[C@H]1CNC[C@@H](COc2ccc(C#N)cc2)O1)C(c1ccccc1)c1ccccc1 [Example 117, N-[2-({(2S,6S)-6-[(4-cyanophenoxy)methyl]morpholin-2-yl}methyl)phenyl]-Nα-(methoxycarbonyl)-β-phenyl-L-phenylalaninamide] | 6.74
N[C@H](C(=O)Nc1cncc(F)c1CC[C@@H]1CNC[C@@H](COC(=O)N2CCOCC2)O1)C(c1ccc(F)cc1)c1ccc(F)cc1 [Example 105, {(2S,6R)-6-[2-(3-fluoro-5-{[4-fluoro-β-(4-fluorophenyl)-L-phenylalanyl]amino}pyridin-4-yl)ethyl]morpholin-2-yl}methyl morpholine-4-carboxylate] | 7.54
COC(=O)N[C@H](C(=O)Nc1ccccc1CC[C@@H]1CNC[C@@H](COc2ccc(-n3ccnc3)cc2)O1)C(c1ccccc1)c1ccccc1 [Example 14, methyl N-[(1S)-1-benzhydryl-2-[[2-[2-[(2R,6S)-6-[(4-imidazol-1-ylphenoxy)methyl]morpholin-2-yl]ethyl]phenyl]amino]-2-oxo-ethyl]carbamate] | 7.49
COC(=O)N[C@H](C(=O)Nc1c(CC[C@@H]2CNC[C@@H](CSc3ccc(Cl)cc3)O2)cc[nH]c1=O)C(c1ccccc1)c1ccccc1 [Example 87, N-(4-{2-[(2R,6S)-6-{[(4-chlorophenyl)sulfanyl]methyl}morpholin-2-yl]ethyl}-2-oxo-1,2-dihydropyridin-3-yl)-Nα-(methoxycarbonyl)-β-phenyl-L-phenylalaninamide] | 10.30
COC(=O)N[C@H](C(=O)Nc1nccnc1CC[C@@H]1CNC[C@@H](COc2ccc(C#N)cc2)O1)C(c1ccccc1)c1ccccc1 [Example 84, methyl N-[(1S)-1-benzhydryl-2-[[3-[2-[(2R,6S)-6-[(4-cyanophenoxy)methyl]morpholin-2-yl]ethyl]pyrazin-2-yl]amino]-2-oxo-ethyl]carbamate] | 6.37
COC(=O)N[C@H](C(=O)Nc1cc(F)cnc1CC[C@@H]1CNC[C@@H](COc2ccc(C#N)cc2)O1)C(c1ccccc1)c1ccccc1 [Example 78, N-[2-(2-{(2R,6S)-6-[(4-cyanophenoxy)methyl]morpholin-2-yl}ethyl)-5-fluoropyridin-3-yl]-Nα-(methoxycarbonyl)-β-phenyl-L-phenylalaninamide] | 6.82
COC(=O)N[C@H](C(=O)Nc1ccccc1CC[C@@H]1CNC[C@@H](COc2ccc3cc[nH]c3c2)O1)C(c1ccccc1)c1ccccc1 [Example 39, N-[2-(2-{(2R,6S)-6-[(1H-indol-6-yloxy)methyl]morpholin-2-yl}ethyl)phenyl]-Na-(methoxycarbonyl)-b-phenyl-L-phenylalaninamide] | 7.00
COC(=O)N[C@H](C(=O)Nc1c(F)cccc1CC[C@@H]1CNC[C@@H](COc2ccc(C#N)cc2)O1)C(c1ccccc1)c1ccccc1 [Example 76, N-[2-(2-{(2R,6S)-6-[(4-cyanophenoxy)methyl]morpholin-2-yl}ethyl)-6-fluorophenyl]-Nα-(methoxycarbonyl)-β-phenyl-L-phenylalaninamide] | 8.04
COC(=O)N[C@H](C(=O)Nc1ccccc1CC[C@@H]1CNC[C@@H](COc2cccc3[nH]ccc23)O1)C(c1ccccc1)c1ccccc1 [Example 30, methyl N-[(1S)-1-benzhydryl-2-[[2-[2-[(2R,6S)-6-(1H-indol-4-yloxymethyl)morpholin-2-yl]ethyl]phenyl]amino]-2-oxo-ethyl]carbamate] | 6.89
COC(=O)N[C@H](C(=O)Nc1ccccc1CC[C@@H]1CNC[C@@H](CSc2ccc(Cl)cc2)O1)[C@@H](c1ccccc1)c1c[nH]c2ncccc12 [Example 67, (βS)-N-(2-{2-[(2R,6S)-6-{[(4-chlorophenyl)sulfanyl]methyl}morpholin-2-yl]ethyl}phenyl)-Nα-(methoxycarbonyl)-β-1H-pyrrolo[2,3-b]pyridin-3-yl-L-phenylalaninamide] | 9.96
COC(=O)N[C@H](C(=O)Nc1ccccc1CC[C@@H]1CNC[C@@H](COc2ccc(Br)cc2[N+](=O)[O-])O1)C(c1ccccc1)c1ccccc1 [Example 10, methyl N-[(1S)-1-benzhydryl-2-[[2-[2-[(2R,6S)-6-[(4-bromo-2-nitro-phenoxy)methyl]morpholin-2-yl]ethyl]phenyl]amino]-2-oxo-ethyl]carbamate] | 6.92
